Experimental data: ChEMBL document CHEMBL1138111, “Reduction of CYP450 inhibition in the 4-[(1H-imidazol-4-yl)methyl]piperidine series of histamine H3 receptor antagonists” (Bioorg Med Chem Lett, 2006)

How the values were obtained:
[1] = target: T1, Cytochrome P450 2D6 (Homo sapiens, UniProt P10635); experiment: Inhibition of CYP2D6 by human liver microsome assay; assay type: ADME, microsomes
[2] = target: Cytochrome P450 3A4 (Homo sapiens, UniProt P08684); experiment: Inhibitory activity against CYP3A4; assay type: ADME
[3] = target: T2, Histamine H3 receptor (Cavia porcellus, UniProt Q9JI35); experiment: Antagonistic activity against histamine H3 receptor in guinea pig ileum; assay type: functional, tissue-based; details: read-out: pA2 (converted)
[4] = target: T2, Histamine H3 receptor; experiment: Displacement of [3H]N-alpha-methylhistamine from guinea pig histamine H3 receptor
[5] = target: T1, Cytochrome P450 2D6; experiment: Inhibition of CYP2D6 by supersome assay; assay type: ADME
[6] = Plasma AUC (0-6 h) in rat at 10 mg/kg, po; assay type: ADME, organism-based; set-up: time < 6 hr, dose 10 mg/kg, route oral
[7] = Plasma AUC (0-24 h) in monkey at 3 mg/kg, po; assay type: ADME, organism-based, Macaca mulatta; set-up: time < 24 hr, dose 3 mg/kg, route oral; details: rhesus monkey

T2 sequence (Q9JI35 whole entry): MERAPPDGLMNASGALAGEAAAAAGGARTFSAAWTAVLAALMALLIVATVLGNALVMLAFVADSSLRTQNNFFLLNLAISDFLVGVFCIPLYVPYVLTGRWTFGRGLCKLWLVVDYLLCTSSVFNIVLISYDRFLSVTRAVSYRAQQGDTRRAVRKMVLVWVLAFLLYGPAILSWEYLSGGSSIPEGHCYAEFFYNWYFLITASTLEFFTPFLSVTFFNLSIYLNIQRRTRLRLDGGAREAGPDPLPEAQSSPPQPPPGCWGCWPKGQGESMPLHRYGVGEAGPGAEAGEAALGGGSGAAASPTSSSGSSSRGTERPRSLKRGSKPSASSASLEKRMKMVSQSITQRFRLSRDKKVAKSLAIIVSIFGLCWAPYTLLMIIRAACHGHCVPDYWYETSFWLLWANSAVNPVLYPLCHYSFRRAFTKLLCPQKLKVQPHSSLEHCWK
T1 sequence (P10635 whole entry): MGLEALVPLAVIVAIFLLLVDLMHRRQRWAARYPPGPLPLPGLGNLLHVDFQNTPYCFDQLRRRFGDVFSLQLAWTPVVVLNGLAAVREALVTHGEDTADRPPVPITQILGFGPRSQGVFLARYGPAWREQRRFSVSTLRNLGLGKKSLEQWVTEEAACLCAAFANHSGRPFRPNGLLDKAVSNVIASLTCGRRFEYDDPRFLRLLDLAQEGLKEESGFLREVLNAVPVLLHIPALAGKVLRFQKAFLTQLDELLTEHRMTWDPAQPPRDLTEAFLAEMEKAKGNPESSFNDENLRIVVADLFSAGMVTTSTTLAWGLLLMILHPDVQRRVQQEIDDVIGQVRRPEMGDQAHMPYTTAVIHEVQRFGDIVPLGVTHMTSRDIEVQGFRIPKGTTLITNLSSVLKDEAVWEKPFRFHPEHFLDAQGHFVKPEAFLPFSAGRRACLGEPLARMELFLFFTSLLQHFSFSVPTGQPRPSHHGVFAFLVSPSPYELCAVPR
Cytochrome P450 3A4, sequence (P08684 whole entry): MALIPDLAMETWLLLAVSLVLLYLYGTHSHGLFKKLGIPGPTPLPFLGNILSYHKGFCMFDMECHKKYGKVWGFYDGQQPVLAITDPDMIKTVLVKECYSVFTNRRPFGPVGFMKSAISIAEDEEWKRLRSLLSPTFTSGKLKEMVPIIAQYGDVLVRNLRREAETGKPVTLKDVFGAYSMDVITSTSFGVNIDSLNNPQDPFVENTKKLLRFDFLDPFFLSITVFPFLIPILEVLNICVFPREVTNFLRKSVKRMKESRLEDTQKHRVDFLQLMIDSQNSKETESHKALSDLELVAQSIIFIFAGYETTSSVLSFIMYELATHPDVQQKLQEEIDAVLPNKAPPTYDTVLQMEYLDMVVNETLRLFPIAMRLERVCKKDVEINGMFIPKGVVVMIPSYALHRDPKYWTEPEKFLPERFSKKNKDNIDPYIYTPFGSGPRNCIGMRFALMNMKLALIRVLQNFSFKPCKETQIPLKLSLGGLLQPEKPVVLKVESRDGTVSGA

Row | SMILES | IC50 [1] | IC50 [2] | Kb [3] | Ki [4] | IC50 [5] | AUC(0-t) at 24 h [7] | AUC(0-t) at 6 h [6]
1 | c1ccc(OCCCN2CCC(Cc3c[nH]cn3)CC2)cc1 | 30 nM | > 20000 nM | – | – | – | – | –
2 | NC(=O)C1CCN(Cc2ccc(OCCCN3CCC(Cc4c[nH]cn4)CC3)cc2)CC1 | – | – | 25.1 nM | 16 nM | > 30000 nM | – | –
3 | FC1(F)CCN(Cc2ccc(OCCCN3CCC(Cc4cnc[nH]4)CC3)cc2)CC1 | 6000 nM | – | – | 4 nM | – | – | –
4 | O=C(c1ccc(OCCCN2CCC(Cc3c[nH]cn3)CC2)cc1)N1CCCCC1 | – | – | 20 nM | 26 nM | 2000 nM | – | –
5 | CN(C)CCCOc1ccc(CN2CCC(Cc3cnc[nH]3)CC2)cc1 | > 30000 nM | – | 79.4 nM | 17 nM | – | – | –
6 | O=C(CCOc1ccc(CN2CCCCC2)cc1)N1CCC(Cc2cnc[nH]2)CC1 | 1000 nM | – | – | 315 nM | – | – | 1.83 µM·h
7 | Nc1ncc(-c2ccc(OCCCN3CCC(Cc4c[nH]cn4)CC3)cc2)cn1 | 12000 nM | – | 20 nM | 12 nM | – | – | –
8 | c1nc(CC2CCN(CCCOc3ccc(CN4CCCCC4)nc3)CC2)c[nH]1 | 3000 nM | – | 7.94 nM | 10 nM | – | – | –
9 | c1nc(CC2CCN(CCCCOc3ccc(CN4CCCCC4)cc3)CC2)c[nH]1 | > 20000 nM | – | 15.8 nM | 16 nM | – | – | –
10 | c1ncc(-c2ccc(OCCCN3CCC(Cc4cnc[nH]4)CC3)cc2)cn1 | 4000 nM | – | – | 9 nM | – | – | –
11 | c1cnc(-c2ccc(OCCCN3CCC(Cc4cnc[nH]4)CC3)cc2)nc1 | 6000 nM | – | – | 45 nM | – | – | –
12 | O=C(CCOc1ccc(C(=O)N2CCNCC2)cc1)N1CCC(Cc2c[nH]cn2)CC1 | 30000 nM | – | – | – | – | – | –
13 | O=C(Nc1nccs1)N1CCC(Cc2cnc[nH]2)CC1 | 2000 nM | – | 25.1 nM | 4 nM | – | – | 1.03 µM·h
14 | O=C(Nc1ncccn1)N1CCC(Cc2c[nH]cn2)CC1 | 6000 nM | – | 25.1 nM | 8 nM | – | – | –
15 | CCN(CC)Cc1ccc(OCCCN2CCC(Cc3c[nH]cn3)CC2)cc1 | 6000 nM | – | 1.58 nM | 4 nM | – | – | –
16 | c1nc(CC2CCN(CCCOc3ccc(N4CCCCC4)cc3)CC2)c[nH]1 | 1000 nM | – | – | 15 nM | – | – | –
17 | O=C(CCc1ccc(CN2CCCCC2)cc1)N1CCC(Cc2c[nH]cn2)CC1 | 3000 nM | – | – | 45 nM | – | – | –
18 | CN(C)CCCOc1ccc(CN2CCCCC2)cc1 | > 30000 nM | > 30000 nM | 31.6 nM | 33 nM | – | – | –
19 | c1cncc(-c2ccc(OCCCN3CCC(Cc4cnc[nH]4)CC3)cc2)c1 | 300 nM | – | – | 12 nM | – | – | –
20 | c1nc(CC2CCN(CCCOc3ccc(CN4CCCCC4)cc3)CC2)c[nH]1 | 14000 nM | – | 2.51 nM | 3 nM | – | 3.2 µM·h | –
21 | O=C(c1ccc(OCCCN2CCC(Cc3cnc[nH]3)CC2)cc1)N1CCNCC1 | > 20000 nM | – | 15.8 nM | 23 nM | – | – | –
22 | O=C(CCN1CCC(Cc2c[nH]cn2)CC1)Nc1ccc(CN2CCCCC2)cc1 | 9000 nM | – | – | 40 nM | – | – | –
23 | CN(C)CCCOc1ccc(CCCN2CCC(Cc3cnc[nH]3)CC2)cc1 | > 30000 nM | – | 50.1 nM | 13 nM | – | – | –

Second part, led by results:

Row | IC50 [1] | IC50 [2] | Kb [3] | Ki [4] | IC50 [5] | AUC(0-t) at 24 h [7] | SMILES | AUC(0-t) at 6 h [6]
24 | 3000 nM | – | – | 5 nM | – | – | c1ncc(CC2CCN(CCOc3ccc(CN4CCCCC4)cc3)CC2)[nH]1 | –
25 | 2000 nM | – | – | 52 nM | – | – | c1cnc2ccc(OCCCN3CCC(Cc4cnc[nH]4)CC3)cc2c1 | –
26 | 300 nM | – | – | 6 nM | – | – | c1ncc(CC2CCN(CCCOc3ccc(OC4CCCCC4)cc3)CC2)[nH]1 | –
27 | – | – | – | 34 nM | 5000 nM | – | O=C1CCCCN1Cc1ccc(OCCCN2CCC(Cc3cnc[nH]3)CC2)cc1 | –
28 | 2000 nM | – | 20 nM | 24 nM | – | – | O=C(c1ccc(OCCCN2CCC(Cc3cnc[nH]3)CC2)nc1)N1CCCCC1 | –
29 | 900 nM | – | – | 15 nM | – | – | c1ncc(CC2CCN(CCCOc3ccc(NC4CCCCC4)cc3)CC2)[nH]1 | –
30 | – | – | 3.16 nM | 3 nM | 1000 nM | – | c1ncc(CC2CCN(CCCOc3ccc(CCN4CCCCC4)cc3)CC2)[nH]1 | –
31 | 2000 nM | – | – | 3 nM | – | – | c1cc(OCCCN2CCC(Cc3cnc[nH]3)CC2)cc(OC2CCCCC2)c1 | –
32 | 3000 nM | – | 3.98 nM | 1 nM | – | – | c1cc(CN2CCCCC2)cc(OCCCN2CCC(Cc3cnc[nH]3)CC2)c1 | –
33 | > 30000 nM | – | – | 3 nM | – | – | c1ncc(CC2CCN(CCCOc3ccc(CN4CCC(N5CCCCC5)CC4)cc3)CC2)[nH]1 | –
34 | > 20000 nM | – | – | 12 nM | – | – | c1ncc(CC2CCN(CCCOc3ccc(N4CCNCC4)cc3)CC2)[nH]1 | –
